In US20030216398A1, “Soluble beta amyloid precursor protein secretion promoters” (priority 2002, published 2003):
Structures can show the parent of a compound that is named as a salt.

First: COc1ccc(C(=O)N2CCC(Nc3ccccc3C(C)C)c3ccccc32)cc1OC.Cl (stereo not drawn)
Second: COc1ccc(C(=O)N2CCC(Nc3ccccc3Cl)c3ccccc32)cc1OC (stereo not drawn) [Example 23, N-(2-Chlorophenyl)-1-(3,4-dimethoxybenzoyl)-1,2,3,4-tetrahydro-4-quinolinamine]
The melting point of the first is higher: 93 to 96 °C for the first, 92 to 93 °C for the second.

First: COc1ccc(C(=O)N2CCC(Nc3ccccc3Cl)c3ccc(Cl)cc32)cc1OC (stereo not drawn) (as salt: hydrochloride) [Example 51, 7-Chloro-N-(2-chlorophenyl)-1-(3,4-dimethoxybenzoyl)-1,2,3,4-tetrahydro-4-quinolinamine Hydrochloride]
Second: COc1ccc(C(=O)N2CCC(Nc3ccccc3Cl)c3cc(Cl)ccc32)cc1OC (stereo not drawn) [Example 39, 6-Chloro-N-(2-chlorophenyl)-1-(3,4-dimethoxybenzoyl)-1,2,3,4-tetrahydro-4-quinolinamine]
The melting point of the first is lower: 74 to 76 °C for the first, 87 to 89 °C for the second.

First: COc1ccc(C(=O)N2c3ccccc3[C@H](N(C)c3ccccc3)C[C@@H]2C)cc1OC (racemic) [Example 28, cis-1-(3,4-Dimethoxybenzoyl)-N,2-dimethyl-N-phenyl-1,2,3,4-tetrahydro-4-quinolinamine]
Second: COc1ccc(C(=O)N2CCC(N(C)c3ccccc3)c3ccccc32)cc1OC (stereo not drawn) [Example 18, 1-(3,4-Dimethoxybenzoyl)-N-methyl-N-phenyl-1,2,3,4-tetrahydro-4-quinolinamine]
The melting point of the first is higher: 180 to 181 °C for the first, 143 to 144 °C for the second.

Going from `C[C@H]1C[C@@H](Nc2ccccc2)c2ccccc2N1C(=O)c1ccncc1` (relative stereo) (hydrate or solvate) [Example 3, cis-1-Isonicotinoyl-2-methyl-N-phenyl-1,2,3,4-tetrahydro-4-quinolinamine] to `C[C@H]1C[C@@H](Nc2ccccc2)c2ccccc2N1C(=O)c1ccccn1` (relative stereo) [Example 4, cis-2-Methyl-N-phenyl-1-(2-pyridinylcarbonyl)-1,2,3,4-tetrahydro-4-quinolinamine], the melting point falls from 210 °C to 157 °C.

Compared with `C[C@H]1C[C@@H](Nc2ccccc2)c2ccccc2N1C(=O)c1ccncc1` (relative stereo) [Example 3, cis-1-Isonicotinoyl-2-methyl-N-phenyl-1,2,3,4-tetrahydro-4-quinolinamine], `C[C@H]1C[C@H](Nc2ccccc2)c2ccccc2N1C(=O)c1ccc(Br)o1` (relative stereo) [Example 41, trans-1-(5-Bromo-2-furoyl)-2-methyl-N-phenyl-1,2,3,4-tetrahydro-4-quinolinamine] is lower in melting point: 121 °C for the first, 117 to 118 °C for the second.

`C[C@H]1C[C@H](Nc2ccccc2)c2ccccc2N1C(=O)c1ccc2c(c1)OCO2` (relative stereo) [Example 7, Trans-1-(1,3-Benzodioxol-5-ylcarbonyl)-2-methyl-N-phenyl-1,2,3,4-tetrahydro-4-quinolinamine] and `CC1CC(Nc2ccccc2)c2ccccc2N1C(=O)c1ccc2c(c1)OCO2` (stereo not drawn) [Example 5, cis-1-(1,3-Benzoxol-5-ylcarbonyl)-2-methyl-N-phenyl-1,2,3,4-tetrahydro-4-quinolinamine] are the same in melting point: 175 °C for the first, 175 °C for the second.

Compared with `COc1cc(C(=O)N2c3ccccc3[C@@H](Nc3ccccc3)C[C@@H]2C)cc(OC)c1OC` (relative stereo) [Example 8, Trans-2-Methyl-N-phenyl-1-(3,4,5-trimethoxybenzoyl)-1,2,3,4-tetrahydro-4-quinolinamine], `COc1cc(C(=O)N2c3ccccc3C(Nc3ccccc3)CC2C)cc(OC)c1OC` (stereo not drawn) [Example 6, cis-2-Methyl-N-phenyl-1-(3,4,5-trimethoybenzoyl)-1,2,3,4-tetrahydro-4-quinolinamine] is higher in melting point: 205 °C for the first, 300 °C for the second.

First: COc1ccc(C(=O)N2c3ccccc3[C@@H](Nc3cccc(C)n3)C[C@@H]2C)cc1OC (relative stereo) [Example 13, Trans-1-(3,4-Dimethoxybenzoyl)-2-methyl-N-(6-methyl-2-pyridinyl)-1,2,3,4-tetrahydro-4-quinolinamine]
Second: COc1ccc(C(=O)N2c3ccccc3C(Nc3ccccc3Cl)CC2C)cc1OC (stereo not drawn) [Example 27, N-(2-Chlorophenyl)-1-(3,4-dimethoxybenzoyl)-2-methyl-1,2,3,4-tetrahydro-4-quinolinamine]
The melting point of the first is higher: 184 to 186 °C for the first, 148 to 150 °C for the second.

Compared with `C[C@H]1C[C@@H](Nc2ccccc2)c2ccccc2N1C(=O)c1ccc(-c2ccc(Cl)cc2)cc1` (relative stereo) [Example 52, cis-1-[(4′-Chloro[1,1′-biphenyl]-4-yl)carbonyl]-2-methyl-N-phenyl-1,2,3,4-tetrahydro-4-quinolinamine], `COc1ccc(C(=O)N2c3ccccc3C(Nc3ccc(Br)cc3)CC2C)cc1OC` (stereo not drawn) [Example 12, N-(4-Bromophenyl)-1-(3,4-dimethoxybenzoyl)-2-methyl-1,2,3,4-tetrahydro-4-quinolinamine] is lower in melting point: 193 to 194 °C for the first, 173 to 175 °C for the second.

Going from `COc1ccc(C(=O)N2CCC(Nc3ccc(Cl)cc3)c3ccccc32)cc1OC` (stereo not drawn) [Example 14, N-(4-chlorophenyl)-1-(3,4-dimethoxybenzoyl)-1,2,3,4-tetrahydro-4-quinolinamine] to `COc1ccc(C(=O)N2CCC(Nc3ccc(Br)cc3)c3ccccc32)cc1OC` (stereo not drawn) [Example 34, N-(4-Bromophenyl)-1-(3,4-dimethoxybenzoyl)-1,2,3,4-tetrahydro-4-quinolinamine], the melting point falls from 131 °C to 130 °C.

First: COc1ccc(C(=O)N2CCC(Nc3ccccc3)c3ccccc32)cc1OC (stereo not drawn) [Example 17, 1-(3,4-Dimethoxybenzoyl)-N-phenyl-1,2,3,4-tetrahydro-4-quinolinamine]
Second: COc1ccc(C(=O)N2CCC(Nc3ccccc3F)c3ccccc32)cc1OC (stereo not drawn) [Example 24, 1-(3,4-Dimethoxybenzoyl)-N-(2-fluorophenyl)-1,2,3,4-tetrahydro-4-quinolinamine]
The melting point of the first is higher: 155 to 156 °C for the first, 133 to 134 °C for the second.

First: COc1ccc(C(=O)N2CCC(Oc3ccc(Br)cc3)c3ccccc32)cc1OC (stereo not drawn) [Example 19]
Second: COc1ccc(C(=O)N2CCC(N(C)c3ccc(Br)cc3)c3ccccc32)cc1OC (stereo not drawn) [Example 37, N-(4-Bromophenyl)-1-(3,4-dimethoxybenzoyl)-N-methyl-1,2,3,4-tetrahydro-4-quinolinamine]
The melting point of the first is lower: 56 to 57 °C for the first, 73 to 74 °C for the second.

First: COc1ccc(C(=O)N2CCN(Cc3ccccc3)c3ccccc32)cc1OC [Example 20, 1-Benzyl-4-(3,4-dimethoxybenzoyl)-1,2,3,4-tetrahydroquinoxaline]
Second: COc1ccc(C(=O)N2CCN(Cc3ccc(-c4ccccc4)cc3)c3ccccc32)cc1OC [Example 42, 1-([1,1′-Biphenyl]-4-ylmethyl)-4-(3,4-dimethoxybenzoyl)-1,2,3,4-tetrahydroquinoxaline]
The melting point of the first is lower: 111 to 112 °C for the first, 133 to 134 °C for the second.

First: COc1ccc(C(=O)N2CCC(Nc3ccc4ncccc4c3)c3ccccc32)cc1OC (stereo not drawn) [Example 21, 1-(3,4-Dimethoxybenzoyl)-N-(6-quinolinyl)-1,2,3,4-tetrahydro-4-quinolinamine]
Second: COc1ccc(C(=O)N2CCC(Nc3cccc(Cl)c3)c3ccccc32)cc1OC (stereo not drawn) [Example 32, N-(3-Chlorophenyl)-1-(3,4-dimethoxybenzoyl)-1,2,3,4-tetrahydro-4-quinolinamine]
The melting point of the first is lower: 116 to 118 °C for the first, 160 °C for the second.

First: COc1ccc(C(=O)N2CCC(Nc3ccccn3)c3ccccc32)cc1OC (stereo not drawn) [Example 22, 1-(3,4-Dimethoxybenzoyl)-N-(2-pyridinyl)-1,2,3,4-tetrahydro-4-quinolinamine]
Second: COc1ccc(C(=O)N2CCC(Nc3c(Cl)cccc3Cl)c3ccccc32)cc1OC (stereo not drawn) [Example 26, N-(2,6-Dichlorophenyl)-1-(3,4-dimethoxybenzoyl)-1,2,3,4-tetrahydro-4-quinolinamine]
The melting point of the first is higher: 156 to 157 °C for the first, 154 to 156 °C for the second.

First: COc1ccc(C(=O)N2CCC(N(C)c3ccccc3C)c3ccccc32)cc1OC (stereo not drawn) [Example 25, 1-(3,4-Dimethoxybenzoyl)-N-methyl-N-(2-methylphenyl)-1,2,3,4-tetrahydro-4-quinolinamine]
Second: COc1ccc(C(=O)N2CCC(N(C)c3ccccc3Cl)c3ccccc32)cc1OC (stereo not drawn) [Example 35, N-(2-Chlorophenyl)-1-(3,4-dimethoxybenzoyl)-N-methyl-1,2,3,4-tetrahydro-4-quinolinamine]
The melting point of the first is higher: 170 to 171 °C for the first, 146 to 147 °C for the second.

First: COc1ccc(C(=O)N2CCC(Nc3ccc4c(c3)OCO4)c3ccccc32)cc1OC (stereo not drawn) [Example 31, N-(1,3-Benzodioxol-5-yl)-1-(3,4-dimethoxybenzoyl)-1,2,3,4-tetrahydro-4-quinolinamine]
Second: COc1ccc(C(=O)N2CCC(Nc3ccc(C)c(Cl)c3)c3ccccc32)cc1OC (stereo not drawn) [Example 38, N-(3-Chloro-4-methylphenyl)-1-(3,4-dimethoxybenzoyl)-1,2,3,4-tetrahydro-4-quinolinamine]
The melting point of the first is higher: 135 to 136 °C for the first, 94 to 96 °C for the second.

First: COc1ccc(C(=O)N2CCC(N(C)c3ccc(Cl)cc3)c3ccccc32)cc1OC (stereo not drawn) [Example 36, N-(4-Chlorophenyl)-1-(3,4-dimethoxybenzoyl)-N-methyl-1,2,3,4-tetrahydro-4-quinolinamine]
Second: COc1ccc(C(=O)N2CCC(Nc3ccccc3)c3cc(Cl)ccc32)cc1OC (stereo not drawn) [Example 48, 6-Chloro-1-(3,4-dimethoxybenzoyl)-N-phenyl-1,2,3,4-tetrahydro-4-quinolinamine]
The melting point of the first is lower: 72 to 74 °C for the first, 188 to 189 °C for the second.

Compared with `COc1ccc(C(=O)N2c3ccccc3C(Nc3ccc(Cl)cc3Cl)CC2C)cc1OC` (stereo not drawn) [Example 43, N-(2,4-Dichlorophenyl)-1-(3,4-dimethoxybenzoyl)-2-methyl-1,2,3,4-tetrahydro-4-quinolinamine], `COc1ccc(C(=O)N2CCC(Nc3ccccc3)c3ccc(Cl)cc32)cc1OC` (stereo not drawn) [Example 50, 7-Chloro-1-(3,4-dimethoxybenzoyl)-N-phenyl-1,2,3,4-tetrahydro-4-quinolinamine] is lower in melting point: 165 to 167 °C for the first, 125 to 126 °C for the second.

For `COc1ccc(C(=O)N2CCC(Nc3ccc(Cl)cc3)c3cc(Cl)ccc32)cc1OC` (stereo not drawn) [Example 47, 6-Chloro-N-(4-chlorophenyl)-1-(3,4-dimethoxybenzoyl)-1,2,3,4-tetrahydro-4-quinolinamine], the melting point was 176 to 178 °C.
